Here are results for 6 compounds from patent US10022415B2, “External composition for skin containing an enzyme-treated saponin fraction derived from the root of Camellia sinensis” (AMOREPACIFIC CORPORATION, priority 2014, dated 2018).

One experiment deals with Tyrosinase. The experiment can be described thus: Tyrosinase hinderance effect. In kind it is biochemical, Mushroom. To be noted: 37° C., 10 minutes, absorbance 475 nm; concentration not given. As for the experimental part:
Tyrosinase enzyme is that extracted from Mushroom and used the product of SIGMA Company. At first, tyrosine being the substrate was dissolved in the distilled water to make 0.3 mg/ml of solution and 1.0 ml of each solution was put in the tube, and then, 1.0 ml of potassium-phosphate buffer solution (0.1 mol concentration, pH 6.8) and 0.7 ml of the distilled water were added.
Each sample liquid, 0.2 ml, which was prepared by mixing the enzyme-treated saponin fraction derived from the root of camellia sinensis of the above Example 1 of the present invention in ethanol solution in the proper concentration was put in the reaction liquid and then was reacted in 37° C. incubator for 10 minutes. At this time, the control was prepared by adding only 0.2 ml of solution, instead of each of sample liquid, ascorbic acid was used as the positive control. 0.1 ml of 2500 units/ml tyrosinase solution was added to the reaction liquid and reacted in 37° C. incubator for 10 minutes. The tube with the reaction liquid was put in the ice water to stop the reaction by quenching and the absorbance at the wavelength of 475 nm was determined with the photoelectric spectrophotometer, and then the result was represented in the below Table 21. Each of tyrosinase hinderance effect was calculated by the below mathematical formula 5.

Another experiment addresses T1, elastase (Sus scrofa, UniProt P00772).
T1 construct: purchased Sigma Aldrich E0127
Nature of the experiment: Inhibition of elastase activity. In kind it is biochemical. The settings on record: EGCG 250 μM as positive control; 25° C., 15 minutes, absorbance 415 nm. As for the experimental part: An ability hindering elastase activity of the enzyme-treated saponin fraction derived from the root of Camellia sinensis was determined in comparison with EGCG. The elastase and substrate as used were commercially purchased from Sigma Aldrich in […]0127), and the saponin fraction was used as the enzyme-treated saponin fraction derived from the root of Camellia sinensis roots as obtained from Example 1. 50 μL of Test material as represented in the below Table 1 and 20 μg/mL elastase·50 μL of solution of type III were mixed with that prepared with […] Tris-HCl buffer (pH 8.0) in 96-well plate. 250 μM of EGCG was used as a positive control, and non-treated group as a negative control used the distilled water. […] After completing the reaction, the absorption at the wavelength of 415 nm was determined. […] A: No addition of the experimental sample, Absorbance at the wavelength of 415 nm with the addition of enzyme B: No addition of the experimental sample, Absorbance at the wavelength of 415 nm without the addition of enzyme C: Addition of the experimental sample, Absorbance at the wavelength of 415 nm with the addition of enzyme D: Addition of the experimental sample, Absorbance at the wavelength of 415 nm without the addition of enzyme

The next experiment concerns B16/F10 melanoma cell. Nature of the experiment: Inhibition of melanin generation in B16/F10 melanoma cell. In kind it is cell-based. The settings on record: sample comprising 0.001 wt % of test material, cultured 3 days. As for the experimental part:
The sample comprising 0.001 wt % of the saponin fraction derived from the root of camellia sinensis of the above Example 1 and kojic acid, respectively, as the test material, was added to the culture of B16/F10 melanoma cell (Korean cell strain bank) at the constant concentration and cultured for 3 days, washed with PBS, dissolved with 1N NaOH and the absorbance was determined at 405 nm. At this time, the cell added no test material was considered as the control and the degree for hindering the melanin generation of each test material was determined by comparing the contents of melanin in the control. The inhibition rate of melanin generation was calculated according to mathematical formula 6 as below and its result was represented in Table 22.

For a further experiment, the target named is T2, 5α-reductase (Homo sapiens, UniProt P31213).
T2 construct: 3xFLAG; expressed in transfected cells; host or cells: HEK293
T2 sequence (P31213 1-254): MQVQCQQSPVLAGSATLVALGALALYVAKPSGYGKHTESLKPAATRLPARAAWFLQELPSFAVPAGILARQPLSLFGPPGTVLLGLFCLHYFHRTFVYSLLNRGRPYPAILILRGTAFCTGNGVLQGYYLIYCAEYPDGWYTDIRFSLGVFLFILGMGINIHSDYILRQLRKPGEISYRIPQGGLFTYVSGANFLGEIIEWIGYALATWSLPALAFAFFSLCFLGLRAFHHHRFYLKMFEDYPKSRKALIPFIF
The experiment can be described thus: Inhibition of 5α-reductase activity, [14C]testosterone to DHT in HEK293-5αR2 cell. Format: cell-based. The settings on record: 2 hours, negative control 48.0.

Another experiment deals with collagenase (MMP-1). Nature of the experiment: Collagenase (MMP-1) generation in human fibroblast, ELISA. In kind it is cell-based. The settings on record: saponin fraction 30 μg/ml for 24 hours, non-treated group = 100. As for the experimental part:
Fibroblast of a human was placed in 96-well plate (96-well microtiter plate) with Dulbecco's Modified Eagle's Media (DMEM) containing 2.5% fetal bovine serum to be 5,000 cells/well, and was cultured at 5% CO2, at the temperature of 37° C. of incubator to grow to about 70˜80% confluency. The saponin fraction derived from the root of Camellia sinensis of the above Example 1 was treated for 24 hours in a concentration of 30 μg/ml, and then the cell culture was collected.
The degree of the collagenase generation for the cell culture collected by using the commercially available collagenase determination Apparatus (AmershamPharmacia Corporation in U.S.A., Catalog #: RPN 2610) was determined. At first, the collected cell culture was placed in 96-well plate evenly covered with the first collagenase antibody and antigen-antibody reaction was performed in thermostat container for three hours. […]
The absorbance of 96-well plate representing yellow color was determined by using Absorptiometer at 405 nm, the degree of collagenase synthesis was calculated by the below Mathematical formula 2, and the result was shown in Table 2 as below. In this case, the absorbance for the reaction of the cell culture collected from the group without treating with the composition was used as the control.

The subject of a further experiment is procollagen type I. Nature of the experiment: Promotion of collagen biosynthesis in fibroblast, procollagen type I ELISA. The settings on record: 10 ng/ml, 24 hours, non-treated group = 100. In kind it is cell-based. As to the method: In order to investigate the promoting effect of the collagen biosynthesis, the enzyme-treated saponin fraction derived from the root of camellia sinensis of the present invention was determined in comparison with TGF-β. At first, fibroblast was seeded as 10^5 cells per a well in 24-well plate and cultured until growing to about 90% confluency. After incubating it with non-serum DMEM medium for 24 hours, it was treated with 10 ng/ml of the saponin fraction derived from the root of camellia sinensis of the above Example 1 and TGF-β dissolved in the non-serum medium, respectively and incubated in CO2 incubator for 24 hours. The supernatant of them was taken and it was examined as to whether procollagen was increased or not by using procollagen type I ELISA kit. The result is represented in Table 8, and the ability for synthesizing the collagen was compared by considering that the non-treated group was 100.

T1 sequence (P00772 27-266): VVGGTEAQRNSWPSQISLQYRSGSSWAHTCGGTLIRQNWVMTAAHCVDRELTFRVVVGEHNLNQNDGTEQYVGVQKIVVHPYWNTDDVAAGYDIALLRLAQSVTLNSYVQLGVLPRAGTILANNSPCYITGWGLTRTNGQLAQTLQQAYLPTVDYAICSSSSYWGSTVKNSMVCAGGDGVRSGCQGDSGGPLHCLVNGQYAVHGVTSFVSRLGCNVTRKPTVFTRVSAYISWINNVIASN
Protocol for 5α-reductase: In order to identify the effect for inhibiting 5α-reductase activity, a ratio of [^14C]testosterone changed into [^14C]dihydrotestosterone (DHT) in HEK293-5αR2 cell was determined. […] The next day, new medium with the enzyme substrate and inhibitor was changed. 0.05 μCi [^14C]testosterone (Amersham Pharmacia biotech, UK) as the substrate of the medium was used.
Thereafter, the culture media was collected and steroid was extracted with 800 μl of ethylacetate and then, after separating the organic solvent layer of the top and drying it, the remaining residue was dissolved with 50 μl of ethylacetate and developed it by using ethylacetate-hexane (1:1) as a solvent on Silica plastic sheet kieselgel 60 F254.

With `O=C1O[C@H]([C@@H](O)CO)C(O)=C1O` [Ascorbic acid], the “Tyrosnase hinderance rate (%)” value in the experiment on Tyrosinase worked out at 52%.

With `O=C(O[C@@H]1Cc2c(O)cc(O)cc2O[C@@H]1c1cc(O)c(O)c(O)c1)c1cc(O)c(O)c(O)c1` [EGCG], the “Degree of the inhibiton (%) of elastase activity” value at elastase came out at 65%.

On to `O=c1cc(CO)occ1O` [Kojic acid], for which the “Inhibition rate of melanin generation (%)” value with B16/F10 melanoma cell came to 53%.

Regarding `CC(C)(C)NC(=O)[C@H]1CC[C@H]2[C@@H]3CC[C@H]4NC(=O)C=C[C@]4(C)[C@H]3CC[C@]12C` [Positive control, finasteride], the “Conversion rate (%) of testosterone into dihydrotestosterone” value on 5α-reductase is given as 27.6%.

As to `CC1=C(/C=C/C(C)=C/C=C/C(C)=C/C(=O)O)C(C)(C)CCC1` [Retinoic acid], the “Degree of the expression (%) of collagenase” value in the experiment on collagenase (MMP-1) is listed as 75%.

For “TGF-β: comparison substance for collagen biosynthesis”, in the experiment on procollagen type I, the “Ability for synthesizing collagen (%)” value was found to be 183.5%.
